Test results: patent US20170158702A1, “MULTIVALENT RAS BINDING COMPOUNDS” (KYRAS THERAPEUTICS, INC., priority 2015, published 2017)
pEC50: −log10 of the molar value. Counter-ions that a name gives are not always drawn.

Legend:
Format in all cases: cell-based
NCI-H460 = assay: Viability assay with NCI-H460 (CellTiter-Glo cytotoxicity assay, 72 h); settings: NCI-H460 cell line, 72 h after compounds addition
Summary of the method: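 NCI-H460 cells, RPMI 1640 + 10% FBS, seeded 1200/well and adhered overnight, then exposed to compounds at 9 points, 2-fold dilution, in triplicate, 0.5% DMSO final. Cellular ATP measured by CellTiter-Glo luminescence 72 h after addition.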

MIA PaCa-2 = assay: Viability assay with MIA PaCa-2; settings: MIA PaCa-2, viability assay per Example 57
Summary of the method: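 MIA PaCa-2 cells were seeded at 1200/well, allowed to adhere overnight, then treated in triplicate with 9-point 2-fold compound dilutions at 0.5% final DMSO. Viability was measured as cellular ATP by CellTiter-Glo luminescence 72 h after compound addition.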

U2OS = assay: Viability assay with U2OS; settings: viability assay per Example 57
Description: (§1) NCI-H460 (Epithelial lung tissue; carcinoma; large cell lung cancer) were cultured in RPMI Medium 1640 (Invitrogen-22400105) supplemented with 10% fetal bovine serum (FBS; Invitrogen-10099141). All the cell lines were maintained in a humidified incubator at 37° C. with 5% CO2. Cell culture media and supplements were purchased from Invitrogen, and tissue culture flasks were purchased from Corning, 96-well plates were purchased from Greiner. CellTiter-Glo Luminescent Cell Viability Assay kits were purchased from Promega (Promega-G7573), cells counter Vi-Cell was purchased from Beckman, D300e digital dispenser was purchased from Tecan, detection instrument Envision was purchased from PerkinElmer.
(§2) Paclitaxel was purchased from SELLECK, test compounds, such as any one of the compounds disclosed herein, attained solubility in DMSO and when diluted into culture media. DMSO, solutions containing the test compounds, and culture media were warmed to 37° C. or room temperature for the solution preparation and dilutions.
(§3) NCI-H460 Cell line were seeded in 96-well plates (1200/well) and allowed to adhere to overnight (100 uL/well), for drug treatments with 2 fold dilution, 9 dose points, triplicates or vehicle control, compound stock solutions were prepared in DMSO and use D300e digital dispenser to add compounds to the wells to give the indicated final drug concentrations. Final DMSO concentration was 0.5%. Cellular ATP concentrations were assessed by using the CellTiter-Glo Cell Viability Assay as per the manufacturer's instructions 72 h after compounds addition. Additional cells lines were assayed with any one of the compounds disclosed herein according to the procedures described for the viability assay with NCI-H460.
The viability assay with U2OS (epithelial bone tissue; osteosarcoma) was performed with compounds listed in Table 17 according to the procedures described in Example 57.

NCI-H2023 = assay: Viability assay with NCI-H2023; settings: NCI-H2023, viability assay per Example 57
Description: as §1, §2, §3
A viability assay with NCI-H2023 (stage 3A, adenocarcinoma; non-small cell lung cancer) was performed with compounds listed in Table 16 according to the procedures described in Example 57.

Structure (SMILES) | pEC50 (NCI-H460) | pEC50 (MIA PaCa-2) | pEC50 (U2OS) | pEC50 (NCI-H2023) | pEC50 (NCI-H460; Homo sapiens) | pEC50 (MIA PaCa-2; Homo sapiens)
COc1ccc(F)c(CN2CCN(Cc3ccc4c(c3)c(-c3ccc(OC(F)(F)F)cc3)cn4CCCN)CC2)c1 [C1; HCl] | ≥ 5.30 | ≥ 5.30 | ≥ 5.30 | – | – | –
COc1ccccc1-c1cn(CCCN)c2ccc(CN3CCN(Cc4c(Cl)cccc4Cl)CC3)cc12 [C2; HCl] | ≥ 5.30 | ≥ 5.30 | ≥ 5.30 | – | – | –
NCCCn1cc(-c2ccc(OC(F)(F)F)cc2)c2cc(CN3CCC(Cc4ccccc4Cl)CC3)ccc21 [C3; HCl] | ≥ 5.30 | ≥ 5.30 | ≥ 5.30 | – | – | –
N#Cc1cccc(-c2cccc(Cl)c2CN2CCN(Cc3ccc4c(c3)c(-c3cccc(C#N)c3)cn4CCCN)CC2)c1 [C4; HCl] | ≥ 5.30 | ≥ 5.30 | ≥ 5.30 | – | – | –
NCCCn1cc(-c2ccc(OC(F)(F)F)cc2)c2cc(CN3CCN(C(=O)c4ccccc4Cl)CC3)ccc21 [C15; HCl] | ≥ 5.30 | ≥ 5.30 | – | ≥ 5.30 | – | –
CNCc1ccc2c(c1)c(-c1ccc(OC(F)(F)F)cc1)cn2CCCNC(=O)C1(N)CCNCC1 [C16; HCl] | < 4.52 | < 4.52 | – | < 4.52 | – | –
NCCCn1cc(-c2ccc(OC(F)(F)F)cc2)c2cc(CN3CC4CCC(C3)N4Cc3ccccc3Cl)ccc21 [C17; HCl] | ≥ 5.30 | ≥ 5.30 | – | ≥ 5.30 | – | –
NCCCn1cc(-c2ccc(N)nc2)c2cc(CN3CCN(Cc4c(Cl)cccc4Cl)CC3)ccc21 [C18; HCl] | ≥ 5.30 | ≥ 5.30 | – | ≥ 5.30 | – | –
NCCCn1cc(-c2ccc(OC(F)(F)F)cc2)c2cc(CN3CCN(Cc4cccc(F)c4Cl)CC3)ccc21 [C19; HCl] | ≥ 5.30 | ≥ 5.30 | – | ≥ 5.30 | – | –
CNCCCn1cc(-c2ccc(OC(F)(F)F)cc2)c2cc(CN3CCN(Cc4c(Cl)cccc4Cl)CC3)ccc21 [C21; Formic acid] | ≥ 5.30 | ≥ 5.30 | – | ≥ 5.30 | – | –
NCCCn1cc(-c2ccc(F)cc2)c2cc(CN3CCN(Cc4c(Cl)cccc4Cl)CC3)ccc21 [C23; Formic acid] | ≥ 5.30 | ≥ 5.30 | – | ≥ 5.30 | – | –
NC1(C(=O)NCCCn2cc(-c3ccccc3)c3cc(CN4CCN(Cc5c(Cl)cccc5Cl)CC4)ccc32)CCNCC1 [C24; HCl] | ≥ 5.30 | ≥ 5.30 | – | ≥ 5.30 | – | –
NCCNCCCn1cc(-c2ccc(OC(F)(F)F)cc2)c2cc(CN3CCN(Cc4c(Cl)cccc4Cl)CC3)ccc21 [C26; HCl] | ≥ 5.30 | ≥ 5.30 | – | ≥ 5.30 | – | –
CCN1CCN(Cc2ccc3c(c2)c(-c2ccc(OC(F)(F)F)cc2)cn3CCCNC(=O)C2(N)CCNCC2)CC1 [C27; HCl] | < 4.52 | 4.52 to 5.00 | – | 4.52 to 5.00 | – | –
CN(C)Cc1ccc2c(c1)c(-c1ccc(OC(F)(F)F)cc1)cn2CCCNC(=O)C1(N)CCNCC1 [C29; HCl] | 4.52 to 5.00 | < 4.52 | – | 4.52 to 5.00 | – | –
NC1CCC(c2cn(-c3ccc(OC(F)(F)F)cc3)c3cc(CN4CCN(Cc5c(Cl)cccc5Cl)CC4)ccc23)C1 (stereo not drawn) [C30; HCl] | ≥ 5.30 | ≥ 5.30 | – | ≥ 5.30 | – | –
NCCCn1cc(-c2ccc(OC(F)(F)F)cc2)c2cc(CN3CC4CCC(C3)N4Cc3c(Cl)cccc3Cl)ccc21 [C32; HCl] | ≥ 5.30 | ≥ 5.30 | – | ≥ 5.30 | – | –
N#Cc1ccc(-c2cn(CCCN)c3ccc(CN4CCN(Cc5c(Cl)cccc5Cl)CC4)cc23)cc1 [C33; HCl] | ≥ 5.30 | ≥ 5.30 | – | ≥ 5.30 | – | –
CC(C)N1CCN(Cc2ccc3c(c2)c(-c2ccc(OC(F)(F)F)cc2)cn3CCCNC(=O)C2(N)CCNCC2)CC1 [C34; HCl] | 4.52 to 5.00 | 4.52 to 5.00 | – | 4.52 to 5.00 | – | –
NC1(C(=O)NCCCCn2cc(-c3ccc(OC(F)(F)F)cc3)c3cc(CN4CCN(Cc5c(Cl)cccc5Cl)CC4)ccc32)CCNCC1 [C35; HCl] | ≥ 5.30 | ≥ 5.30 | – | ≥ 5.30 | – | –

Structure (SMILES) | pEC50 (NCI-H460) | pEC50 (MIA PaCa-2) | pEC50 (U2OS) | pEC50 (NCI-H2023) | pEC50 (NCI-H460; Homo sapiens) | pEC50 (MIA PaCa-2; Homo sapiens)
NC1(C(=O)NCCCn2cc(-c3ccc(O)cc3)c3cc(CN4CCN(Cc5c(Cl)cccc5Cl)CC4)ccc32)CCNCC1 [C36; HCl] | < 4.52 | 4.52 to 5.00 | – | < 4.52 | – | –
NCCCn1cc(-c2ccccc2)c2cc(CN3CCN(Cc4c(Cl)cccc4Cl)CC3)ccc21 [C37; HCl] | ≥ 5.30 | 5.00 to 5.30 | – | 5.00 to 5.30 | – | –
NC1(C(=O)NCCCn2cc(-c3ccc(OC(F)(F)F)cc3)c3cc(CN4CCN(c5ccccc5)CC4)ccc32)CCNCC1 [C38; HCl] | ≥ 5.30 | ≥ 5.30 | – | ≥ 5.30 | – | –
Cc1ccc(-c2cn(CCCNC(=O)C3(N)CCNCC3)c3ccc(CN4CCN(Cc5c(Cl)cccc5Cl)CC4)cc23)cc1 [C39; HCl] | ≥ 5.30 | ≥ 5.30 | – | ≥ 5.30 | – | –
N#Cc1ccc(-c2cn(CCCNC(=O)C3(N)CCNCC3)c3ccc(CN4CCN(Cc5c(Cl)cccc5Cl)CC4)cc23)cc1 [C40; HCl] | ≥ 5.30 | ≥ 5.30 | – | ≥ 5.30 | – | –
NC1(C(=O)NCCCn2cc(-c3ccc(OC(F)(F)F)cc3)c3cc(CN4CCN(Cc5c(Cl)cccc5Cl)CC4)ccc32)CCNCC1 [C41; Trifluoroacetic acid] | ≥ 5.30 | ≥ 5.30 | – | ≥ 5.30 | – | –
N[C@H]1CC[C@H](n2cc(-c3ccc(OC(F)(F)F)cc3)c3cc(CN4CCN(Cc5c(Cl)cccc5Cl)CC4)ccc32)C1 [C42; HCl] | ≥ 5.30 | ≥ 5.30 | – | ≥ 5.30 | – | –
NCCCn1cc(-c2ccc(O)cc2)c2cc(CN3CCN(Cc4c(Cl)cccc4Cl)CC3)ccc21 [C44; HCl] | ≥ 5.30 | ≥ 5.30 | – | ≥ 5.30 | – | –
CC(C)(N)C(=O)NCCCn1cc(-c2ccc(OC(F)(F)F)cc2)c2cc(CN3CCN(Cc4c(Cl)cccc4Cl)CC3)ccc21 [C46; HCl] | ≥ 5.30 | ≥ 5.30 | – | ≥ 5.30 | – | –
CC(=O)NCCCn1cc(-c2ccc(OC(F)(F)F)cc2)c2cc(CN3CCN(Cc4c(Cl)cccc4Cl)CC3)ccc21 [C47; Formic acid] | ≥ 5.30 | ≥ 5.30 | – | ≥ 5.30 | – | –
NC1(C(=O)NCCCn2cc(-c3ccc(OC(F)(F)F)cc3)c3cc(CN4CCNCC4)ccc32)CCNCC1 [C48; HCl] | < 4.52 | < 4.52 | – | < 4.52 | – | –
COc1cccc(OC)c1CN1CCN(Cc2ccc3c(c2)c(-c2ccc(OC(F)(F)F)cc2)cn3CCCNC(=O)C2(N)CCNCC2)CC1 [C49; HCl] | 5.00 to 5.30 | 5.00 to 5.30 | – | 5.00 to 5.30 | – | –
NCCCn1cc(-c2ccc(N)cc2)c2cc(CN3CCN(Cc4c(Cl)cccc4Cl)CC3)ccc21 [C50; HCl] | ≥ 5.30 | ≥ 5.30 | – | ≥ 5.30 | – | –
Cc1ccc(-c2cn(CCCN)c3ccc(CN4CCN(Cc5c(Cl)cccc5Cl)CC4)cc23)cc1 [C51; HCl] | ≥ 5.30 | ≥ 5.30 | – | ≥ 5.30 | – | –
NCC(=O)NCCCn1cc(-c2ccc(OC(F)(F)F)cc2)c2cc(CN3CCN(Cc4c(Cl)cccc4Cl)CC3)ccc21 [C52; HCl] | ≥ 5.30 | ≥ 5.30 | – | ≥ 5.30 | – | –
Cc1cccc(C)c1CN1CCN(Cc2ccc3c(c2)c(-c2ccc(OC(F)(F)F)cc2)cn3CCCNC(=O)C2(N)CCNCC2)CC1 [C54; HCl] | ≥ 5.30 | ≥ 5.30 | – | ≥ 5.30 | – | –
NC1(C(=O)NCCCn2cc(-c3ccc(OC(F)(F)F)cc3)c3cc(CN4CCN(Cc5c(F)cccc5F)CC4)ccc32)CCNCC1 [C55; HCl] | ≥ 5.30 | ≥ 5.30 | – | ≥ 5.30 | – | –
NC1(C(=O)NCCCn2cc(-c3ccc(OC(F)(F)F)cc3)c3cc(CN4C5CCC4CN(Cc4c(Cl)cccc4Cl)C5)ccc32)CCNCC1 [C56; HCl] | ≥ 5.30 | ≥ 5.30 | – | ≥ 5.30 | – | –
OCCNCCCn1cc(-c2ccc(OC(F)(F)F)cc2)c2cc(CN3CCN(Cc4c(Cl)cccc4Cl)CC3)ccc21 [Compound C20, 2-(3-(5-((4-(2,6-dichlorobenzyl)piperazin-1-yl)methyl)-3-(4-(trifluoromethoxy)phenyl)-1H-indol-1-yl)propylamino)ethanol] | – | – | – | ≥ 5.30 | ≥ 5.30 | ≥ 5.30
CCOC(=O)CNCCCn1cc(-c2ccc(OC(F)(F)F)cc2)c2cc(CN3CCN(Cc4c(Cl)cccc4Cl)CC3)ccc21 [Compound C28, ethyl 2-(3-(5-((4-(2,6-dichlorobenzyl)piperazin-1-yl)methyl)-3-(4-(trifluoromethoxy)phenyl)-1H-indol-1-yl)propylamino)acetate] | – | – | – | 5.00 to 5.30 | 5.00 to 5.30 | ≥ 5.30
